Experiments:
Test in all cases: β-arrestin based GPCR screen (PathHunter / GPCRmax), antagonist mode
168 GPCRs [1] = target: 168 GPCRs (Homo sapiens, UniProt Q99788); details: CMKLR1, Antagonist
168 GPCRs [2] = target: 168 GPCRs (Homo sapiens, UniProt P21731); details: TBXA2R
168 GPCRs [3] = target: 168 GPCRs (Homo sapiens, UniProt P49146); details: NPY2R
168 GPCRs [4] = target: 168 GPCRs (Homo sapiens, UniProt P08912); details: CHRM5, Antagonist
168 GPCRs [5] = target: 168 GPCRs (Homo sapiens, UniProt P43220); details: GLP1R
Chain of 168 GPCRs (Homo sapiens, UniProt P43220) (P43220 24-463): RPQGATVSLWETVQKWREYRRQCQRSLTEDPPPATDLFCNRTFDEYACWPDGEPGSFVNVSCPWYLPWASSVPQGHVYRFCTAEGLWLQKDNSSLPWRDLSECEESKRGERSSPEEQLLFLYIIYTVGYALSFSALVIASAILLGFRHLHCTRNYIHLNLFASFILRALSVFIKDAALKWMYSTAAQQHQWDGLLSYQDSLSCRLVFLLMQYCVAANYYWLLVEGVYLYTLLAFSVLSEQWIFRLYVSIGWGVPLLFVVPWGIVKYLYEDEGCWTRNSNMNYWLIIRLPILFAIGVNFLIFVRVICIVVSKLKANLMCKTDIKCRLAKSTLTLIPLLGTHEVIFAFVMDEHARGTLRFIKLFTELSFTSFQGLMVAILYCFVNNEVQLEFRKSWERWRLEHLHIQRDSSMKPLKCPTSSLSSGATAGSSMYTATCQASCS

168 GPCRs [6] = target: 168 GPCRs (Homo sapiens, UniProt P25021)
Chain of 168 GPCRs (Homo sapiens, UniProt P25021) (P25021 whole entry): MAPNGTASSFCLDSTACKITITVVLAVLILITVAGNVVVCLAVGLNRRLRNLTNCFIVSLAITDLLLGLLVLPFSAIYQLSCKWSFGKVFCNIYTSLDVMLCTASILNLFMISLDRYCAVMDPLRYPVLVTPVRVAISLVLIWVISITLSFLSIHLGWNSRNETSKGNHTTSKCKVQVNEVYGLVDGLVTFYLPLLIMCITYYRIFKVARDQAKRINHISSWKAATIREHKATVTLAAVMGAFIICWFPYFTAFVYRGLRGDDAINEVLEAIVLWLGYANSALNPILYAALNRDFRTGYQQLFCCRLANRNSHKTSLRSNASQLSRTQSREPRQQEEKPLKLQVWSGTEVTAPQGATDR

168 GPCRs [7] = target: 168 GPCRs (Homo sapiens, UniProt P55085)
Chain of 168 GPCRs (Homo sapiens, UniProt P55085) (P55085 26-397): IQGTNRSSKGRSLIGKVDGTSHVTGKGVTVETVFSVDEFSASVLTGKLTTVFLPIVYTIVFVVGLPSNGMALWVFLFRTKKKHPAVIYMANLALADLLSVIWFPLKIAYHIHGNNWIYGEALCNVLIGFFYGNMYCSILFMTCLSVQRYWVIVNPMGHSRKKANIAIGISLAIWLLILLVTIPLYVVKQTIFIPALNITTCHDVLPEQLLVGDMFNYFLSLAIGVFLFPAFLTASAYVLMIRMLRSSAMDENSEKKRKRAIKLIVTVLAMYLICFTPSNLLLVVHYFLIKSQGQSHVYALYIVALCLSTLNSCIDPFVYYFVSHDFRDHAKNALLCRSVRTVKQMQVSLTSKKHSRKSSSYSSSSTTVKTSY

168 GPCRs [8] = target: 168 GPCRs (Homo sapiens, UniProt P25116); details: F2F, Antagonist mode, 10 uM
168 GPCRs [9] = target: 168 GPCRs (Homo sapiens, UniProt P30556); details: AGTR1, Antagonist
168 GPCRs [10] = target: 168 GPCRs (Homo sapiens, UniProt P21730); details: C5AR1, Antagonist
168 GPCRs [11] = target: 168 GPCRs (Homo sapiens, UniProt P32249)
Chain of 168 GPCRs (Homo sapiens, UniProt P32249) (P32249 whole entry): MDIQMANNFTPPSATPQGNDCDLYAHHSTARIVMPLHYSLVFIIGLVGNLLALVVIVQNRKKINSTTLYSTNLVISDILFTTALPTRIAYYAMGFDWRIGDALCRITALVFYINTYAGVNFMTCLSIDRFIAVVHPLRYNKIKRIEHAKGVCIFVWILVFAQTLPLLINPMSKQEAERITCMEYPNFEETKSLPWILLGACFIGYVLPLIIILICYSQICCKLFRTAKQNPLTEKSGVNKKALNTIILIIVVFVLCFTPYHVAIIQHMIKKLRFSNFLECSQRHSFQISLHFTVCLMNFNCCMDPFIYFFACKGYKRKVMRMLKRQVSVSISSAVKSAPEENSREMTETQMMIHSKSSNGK

168 GPCRs [12] = target: 168 GPCRs (Homo sapiens, UniProt P51684); details: CCR6, Antagonist
Chain of 168 GPCRs (Homo sapiens, UniProt P51684) (P51684 whole entry): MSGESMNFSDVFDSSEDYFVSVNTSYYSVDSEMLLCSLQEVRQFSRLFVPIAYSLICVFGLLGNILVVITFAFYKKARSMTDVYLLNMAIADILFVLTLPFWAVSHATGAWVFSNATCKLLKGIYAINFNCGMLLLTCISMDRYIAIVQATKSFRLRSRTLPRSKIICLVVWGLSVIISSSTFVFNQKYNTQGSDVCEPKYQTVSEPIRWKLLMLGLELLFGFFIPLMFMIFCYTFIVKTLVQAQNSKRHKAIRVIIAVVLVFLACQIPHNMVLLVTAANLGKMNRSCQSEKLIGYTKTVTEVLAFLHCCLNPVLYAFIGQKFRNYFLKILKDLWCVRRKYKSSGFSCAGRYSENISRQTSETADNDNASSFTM

168 GPCRs [13] = target: 168 GPCRs (Homo sapiens, UniProt P07550); details: ADRB2, Antagonist
168 GPCRs [14] = target: 168 GPCRs (Homo sapiens, UniProt P48039); details: MTNR1A
168 GPCRs [15] = target: 168 GPCRs (Homo sapiens, UniProt P35414); details: AGTRL1, Antagonist
168 GPCRs [16] = target: 168 GPCRs (Homo sapiens, UniProt P34981); details: TRHR
Chain of 168 GPCRs (Homo sapiens, UniProt P34981) (P34981 whole entry): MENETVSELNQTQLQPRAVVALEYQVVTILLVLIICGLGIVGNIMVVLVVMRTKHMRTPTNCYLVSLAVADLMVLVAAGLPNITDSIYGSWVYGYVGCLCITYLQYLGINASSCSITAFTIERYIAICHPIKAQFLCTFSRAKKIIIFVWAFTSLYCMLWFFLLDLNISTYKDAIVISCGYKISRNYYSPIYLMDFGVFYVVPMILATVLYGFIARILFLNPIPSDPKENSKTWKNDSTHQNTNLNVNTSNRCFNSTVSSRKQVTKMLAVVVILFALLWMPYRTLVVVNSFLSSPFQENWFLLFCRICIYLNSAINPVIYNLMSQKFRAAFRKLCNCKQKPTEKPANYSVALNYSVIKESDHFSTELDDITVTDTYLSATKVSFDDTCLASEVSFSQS

168 GPCRs [17] = target: 168 GPCRs (Homo sapiens, UniProt P47900)
168 GPCRs [18] = target: 168 GPCRs (Homo sapiens, UniProt P30518); details: AVPR2, Antagonist
Chain of 168 GPCRs (Homo sapiens, UniProt P30518) (P30518 whole entry): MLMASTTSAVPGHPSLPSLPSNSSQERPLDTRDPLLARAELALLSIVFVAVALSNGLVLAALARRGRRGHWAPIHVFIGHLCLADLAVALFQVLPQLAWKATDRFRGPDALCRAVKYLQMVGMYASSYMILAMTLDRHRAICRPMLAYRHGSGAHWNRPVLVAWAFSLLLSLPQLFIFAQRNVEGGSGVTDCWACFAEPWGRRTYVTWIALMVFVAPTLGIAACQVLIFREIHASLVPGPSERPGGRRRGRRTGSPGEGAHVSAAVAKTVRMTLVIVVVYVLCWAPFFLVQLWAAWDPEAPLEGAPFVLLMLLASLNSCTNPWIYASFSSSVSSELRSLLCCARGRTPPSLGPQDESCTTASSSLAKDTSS

168 GPCRs [19] = target: 168 GPCRs (Homo sapiens, UniProt P25024)
Chain of 168 GPCRs (Homo sapiens, UniProt P25024) (P25024 whole entry): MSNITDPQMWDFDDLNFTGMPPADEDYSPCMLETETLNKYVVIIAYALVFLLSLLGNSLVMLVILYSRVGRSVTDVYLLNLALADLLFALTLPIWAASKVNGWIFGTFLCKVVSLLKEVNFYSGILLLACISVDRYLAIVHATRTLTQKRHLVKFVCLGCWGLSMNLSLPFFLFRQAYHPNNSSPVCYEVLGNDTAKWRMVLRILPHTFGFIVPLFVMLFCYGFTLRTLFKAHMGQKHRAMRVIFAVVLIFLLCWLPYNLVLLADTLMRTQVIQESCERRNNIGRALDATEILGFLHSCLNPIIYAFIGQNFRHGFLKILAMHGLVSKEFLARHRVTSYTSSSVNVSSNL

168 GPCRs [20] = target: 168 GPCRs (Homo sapiens, UniProt P32302)
168 GPCRs [21] = target: 168 GPCRs (Homo sapiens, UniProt P22888); details: LHCGR
168 GPCRs [22] = target: 168 GPCRs (Homo sapiens, UniProt P34998)
Chain of 168 GPCRs (Homo sapiens, UniProt P34998) (P34998 24-415): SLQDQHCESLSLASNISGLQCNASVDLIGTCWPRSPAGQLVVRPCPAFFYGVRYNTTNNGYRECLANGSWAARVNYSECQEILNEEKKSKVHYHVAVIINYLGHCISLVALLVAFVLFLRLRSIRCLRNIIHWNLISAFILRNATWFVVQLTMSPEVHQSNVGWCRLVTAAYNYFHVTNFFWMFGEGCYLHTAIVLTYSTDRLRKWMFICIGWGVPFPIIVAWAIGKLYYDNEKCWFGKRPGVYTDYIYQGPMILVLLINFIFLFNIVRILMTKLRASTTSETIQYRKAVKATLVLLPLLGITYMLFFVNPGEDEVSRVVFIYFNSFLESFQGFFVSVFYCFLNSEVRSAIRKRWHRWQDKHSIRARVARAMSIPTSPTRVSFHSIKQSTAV

168 GPCRs [23] = target: 168 GPCRs (Homo sapiens, UniProt Q8TDS4); details: GPR109A
Chain of 168 GPCRs (Homo sapiens, UniProt Q8TDS4) (Q8TDS4 whole entry): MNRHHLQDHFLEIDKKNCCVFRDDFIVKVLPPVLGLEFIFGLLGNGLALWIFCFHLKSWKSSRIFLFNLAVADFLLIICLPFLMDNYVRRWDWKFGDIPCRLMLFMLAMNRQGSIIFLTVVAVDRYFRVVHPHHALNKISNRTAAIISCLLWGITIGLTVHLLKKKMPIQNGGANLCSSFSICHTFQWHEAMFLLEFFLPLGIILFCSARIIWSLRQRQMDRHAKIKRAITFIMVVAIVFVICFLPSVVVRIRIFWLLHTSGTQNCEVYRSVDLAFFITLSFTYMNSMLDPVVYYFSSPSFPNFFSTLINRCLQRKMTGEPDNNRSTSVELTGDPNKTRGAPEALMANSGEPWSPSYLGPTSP

Chain of 168 GPCRs (Homo sapiens, UniProt P49146) (P49146 whole entry): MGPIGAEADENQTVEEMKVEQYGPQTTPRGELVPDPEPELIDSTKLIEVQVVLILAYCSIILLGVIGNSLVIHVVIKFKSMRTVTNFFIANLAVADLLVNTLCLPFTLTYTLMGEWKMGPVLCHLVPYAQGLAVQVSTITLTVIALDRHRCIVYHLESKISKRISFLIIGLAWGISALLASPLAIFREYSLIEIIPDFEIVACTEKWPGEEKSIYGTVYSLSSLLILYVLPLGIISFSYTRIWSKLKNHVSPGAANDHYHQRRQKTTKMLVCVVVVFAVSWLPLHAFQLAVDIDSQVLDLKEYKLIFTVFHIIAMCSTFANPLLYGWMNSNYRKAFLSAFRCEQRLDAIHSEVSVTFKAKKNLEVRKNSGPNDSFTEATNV
Chain of 168 GPCRs (Homo sapiens, UniProt P21731) (P21731 whole entry): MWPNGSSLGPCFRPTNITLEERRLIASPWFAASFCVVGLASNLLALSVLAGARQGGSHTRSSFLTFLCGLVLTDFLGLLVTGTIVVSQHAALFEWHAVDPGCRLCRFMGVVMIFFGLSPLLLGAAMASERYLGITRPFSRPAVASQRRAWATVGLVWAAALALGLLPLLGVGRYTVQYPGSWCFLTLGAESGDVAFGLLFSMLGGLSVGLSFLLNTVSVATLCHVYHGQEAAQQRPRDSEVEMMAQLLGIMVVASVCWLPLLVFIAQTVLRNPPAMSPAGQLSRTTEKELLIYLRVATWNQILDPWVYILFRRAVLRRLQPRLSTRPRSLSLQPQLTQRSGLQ
Chain of 168 GPCRs (Homo sapiens, UniProt Q99788) (Q99788 whole entry): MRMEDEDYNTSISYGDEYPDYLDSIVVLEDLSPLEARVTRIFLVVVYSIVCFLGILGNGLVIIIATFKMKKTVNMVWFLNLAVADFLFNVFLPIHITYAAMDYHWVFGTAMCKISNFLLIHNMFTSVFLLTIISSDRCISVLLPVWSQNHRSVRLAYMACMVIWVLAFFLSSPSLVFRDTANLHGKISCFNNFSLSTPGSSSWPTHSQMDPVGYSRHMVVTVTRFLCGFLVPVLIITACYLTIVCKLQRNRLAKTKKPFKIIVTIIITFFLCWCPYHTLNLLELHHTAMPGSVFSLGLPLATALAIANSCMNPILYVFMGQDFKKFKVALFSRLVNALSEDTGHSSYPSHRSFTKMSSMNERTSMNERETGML

CNC(C)C(=O)c1ccc2c(c1)OCO2 (stereo not drawn) [methylone, 3,4-methylenedioxy-N-methylcathinone]
activity at 1 µM (168 GPCRs [1]; 1 uM): -0.2% | activity at 10 µM (168 GPCRs [1]; 10 uM): -5.6% | activity at 10 µM (168 GPCRs [2]; Antagonist mode, 10 uM): -19.7% | activity at 1 µM (168 GPCRs [2]; Antagonist, 1 uM): -5.5% | activity at 10 µM (168 GPCRs [3]; Antagonist mode, 10 uM): 2% | activity at 1 µM (168 GPCRs [3]; Antagonist, 1 uM): 2.3% | activity at 1 µM (168 GPCRs [4]; 1 uM): -8% | activity at 10 µM (168 GPCRs [4]; 10 uM): -7.6% | activity at 10 µM (168 GPCRs [5]; Antagonist mode, 10 uM): -0.9% | activity at 1 µM (168 GPCRs [5]; Antagonist, 1 uM): 3.4% | activity at 10 µM (168 GPCRs [6]; HRH2, Antagonist mode, 10 uM): 8.1% | activity at 1 µM (168 GPCRs [6]; HRH2, Antagonist, 1 uM): 7.1% | activity at 10 µM (168 GPCRs [7]; F2RL1, Antagonist mode, 10 uM): 16.2% | activity at 1 µM (168 GPCRs [7]; F2RL1, Antagonist, 1 uM): -26.8% | activity at 10 µM (168 GPCRs [8]): -11.4% | activity at 1 µM (168 GPCRs [9]; 1 uM): 3.3% | activity at 10 µM (168 GPCRs [9]; 10 uM): -1.4% | activity at 1 µM (168 GPCRs [10]; 1 uM): 8.9% | activity at 10 µM (168 GPCRs [10]; 10 uM): 5% | activity at 10 µM (168 GPCRs [11]; EBI2, Antagonist mode, 10 uM): 2.6% | activity at 1 µM (168 GPCRs [11]; EBI2, Antagonist, 1 uM): 0.6% | activity at 1 µM (168 GPCRs [12]; 1 uM): 9.3% | activity at 10 µM (168 GPCRs [12]; 10 uM): -1.6% | activity at 1 µM (168 GPCRs [13]; 1 uM): 18.1% | activity at 10 µM (168 GPCRs [13]; 10 uM): 20.4% | activity at 10 µM (168 GPCRs [14]; Antagonist mode, 10 uM): 7.8% | activity at 1 µM (168 GPCRs [14]; Antagonist, 1 uM): 30.8% | activity at 1 µM (168 GPCRs [15]; 1 uM): -3.3% | activity at 10 µM (168 GPCRs [15]; 10 uM): -4.1% | activity at 10 µM (168 GPCRs [16]; Antagonist mode, 10 uM): 2.8% | activity at 1 µM (168 GPCRs [16]; Antagonist, 1 uM): -7.2% | activity at 10 µM (168 GPCRs [17]; P2RY1, Antagonist mode, 10 uM): 14.9% | activity at 1 µM (168 GPCRs [17]; P2RY1, Antagonist, 1 uM): 14.5% | activity at 1 µM (168 GPCRs [18]; 1 uM): -2.7% | activity at 10 µM (168 GPCRs [18]; 10 uM): -14.8% | activity at 10 µM (168 GPCRs [19]; CXCR1, Antagonist mode, 10 uM): 3.1% | activity at 1 µM (168 GPCRs [19]; CXCR1, Antagonist, 1 uM): 12.1% | activity at 10 µM (168 GPCRs [20]; CXCR5, Antagonist mode, 10 uM): -15.1% | activity at 1 µM (168 GPCRs [20]; CXCR5, Antagonist, 1 uM): -4.3% | activity at 10 µM (168 GPCRs [21]; Antagonist mode, 10 uM): 11.2% | activity at 1 µM (168 GPCRs [21]; Antagonist, 1 uM): 13.8% | activity at 10 µM (168 GPCRs [22]; CRHR1, Antagonist mode, 10 uM): 0.6% | activity at 1 µM (168 GPCRs [22]; CRHR1, Antagonist, 1 uM): 1.3% | activity at 10 µM (168 GPCRs [23]; Antagonist mode, 10 uM): -0.3% | activity at 1 µM (168 GPCRs [23]; Antagonist, 1 uM): 1.4%

Source: patent US12343326B2, “Psychoactive medicines and their use for treating psychiatric and neurological conditions and disorders” (Transcend Therapeutics, Inc., priority 2021, dated 2025)
